# Where “and” joins values, the source holds several entries; their conditions need not be identical. Identical values can stand only once.
# Key:
# Format in all cases: cell-based, human
# [1] = test system: peripheral blood CD34+ cells; assay: Quantification of proplatelet-bearing MKs in two-step culture of CD34+ cells
# Protocol: (§1) CD34^+ cells were seeded in 48-well plates at a density of 4×10^4 per mL in StemSpan SFEM medium supplemented with 20 ng/mL human LDL and CC220 (1×), a cocktail of cytokines containing SCF, TPO, IL-6 and IL-9 (all from Stemcell Technologies), with or without addition of 1 μM SR1 (Cellagen Technology, San Diego, Calif.) (FIG. 1A). On day 7, the cells were harvested, washed and seeded at 5×10^4/mL in StemSpan SFEM medium containing 30 ng/mL TPO with or without 1 μM SR1 for an additional 7 days. The cultures were incubated at 37° C. under normoxic conditions and 5% CO2. On days 7 and 10 of culture, the cells were counted, their viability was measured by propidium iodide exclusion in an automatic cell counter (ADAM, Digital-Bio, Korea) and the expression of CD34, CD41 and CD42b was analyzed in a Gallios flow cytometer using Kaluza software (Beckman Coulter, Villepinte, France). In some experiments, SR1 was replaced by the AhR agonist FICZ (Enzo life sciences, Villeurbane, France) added at 0.2 μM.
# (§2) The percentage of MKs extending proplatelets was determined in the culture wells by phase-contrast microscopy. In each culture, at least 100 MKs were analyzed and images were acquired using a Zeiss Axio Vert.A1 microscope with a 20× objective (Marly-le-Roi, France).
# CD34+CD41dim cells [2] = assay: Number of platelet-like elements produced per seeded sorted CD34+CD41dim cell
# Protocol: The cells recovered on day 10 were incubated with a mixture of Alexa-488-conjugated anti-CD41 (ALMA.17) and PE-Cy7-conjugated anti-CD34 mAbs (BD Biosciences) for 30 min at 4° C. They were then washed in PBS-EDTA and incubated for 30 min in PBS containing 7-AAD (1/50) to select viable cells. The morphologic and sorting gates were determined by FMO (fluorescence minus one) analysis and megakaryocytic precursors were sorted at 500 cells/s according to their CD34/CD41 expression using a FACS Aria II flow cytometer (Becton Dickinson, Mountain View, Calif.) equipped with a 50 μm nozzle and two argon lasers operating at 500 mW and tuned to 488 and 360 nm, respectively (Coherent Radiation, Palo Alto, Calif.). The sorted CD34^+CD41^dim and CD34 CD41^+ cells were then counted and seeded at 4×10^4/mL in 48-well plates in StemSpan medium containing TPO with or without SR1 for 7 days (FIG. 4A). CD34^+ cells cultured for 7 days in the presence of CC220 (FIGS. 1A and 5A) or CD34/CD41 sorted cells (FIGS. 4A and 6A) were seeded in a medium containing TPO. […] CD41/CD42c double positive events, having the same scattering properties as washed blood platelets, were counted as platelet-like particles and the number of particles per seeded cell, at day 7 or 10 following experiments, was determined.
# [3] = test system: peripheral blood CD34+ cells; assay: CD34/CD41 expression by flow cytometry in MK differentiation culture
# Protocol: as §1
# In a second protocol, CD34^+ cells were cultured in the presence of mesenchymal stromal cells (MSCs) isolated from human bone marrow (Guilloton F et al., Blood. 2012; 119:2556-2567). MSCs were maintained in α-MEM medium supplemented with 10% fetal bovine serum (Invitrogen, Cergy Pontoise, France) and 2 ng/mL recombinant human (rh) FGF2 (Peprotech, Rocky Hill, N.J.). CD34^+ cells were added to a confluent layer of MSCs at a density of 4×10^4/mL in 48-well plates in StemSpan SFEM medium supplemented with 20 ng/mL human LDL and CC220. On day 7, the cells in suspension were harvested, washed and co-cultured at 5×10^4/mL on a new layer of confluent MSCs in StemSpan SFEM medium containing 30 ng/mL TPO for an additional 7 days (FIG. 5A).
# Surface Markers. Cells were analyzed by flow cytometry (Gallios, Beckman Coulter, France) after labeling with anti-CD34-PE-Cy7 (Beckman Coulter, Fullerton, Calif.), anti-CD41-Alexa-488 (ALMA.17), anti-CD42c-PE (RAM.1) and anti-CD42d-Alexa-647 (V.1) mAbs for 30 min at 4° C. The cells were then washed and resuspended in PBS containing 7-AAD (1/50). The acquired data were analyzed with Kaluza software.
# CYP1B1 = CYP1B1 mRNA expression by qPCR (downstream target of AhR)
# Protocol: CD41/61 cells were obtained on day 7 or 10 of culture using the antibody ALMA.17 and magnetic beads (EasySep® “Do-It-Yourself” Selection Kit, StemCell Technologies). Total RNA were extracted using an RNeasy® Mini kit (QIAGEN) following manufacturer's instructions. Quantity and quality of total RNA for all samples were evaluated by measuring OD at 260 nm and concentration was adjusted at 50 ng/ml. The RNA samples were stored at −80° C. until use. qRT-PCR was applied under standard conditions using the SYBR Green Master Mix kit on the ABI Prism 7900 Sequence Detection System (PerkinElmer-Cetus, Courtaboeuf, France). The primers for genes were chosen with the assistance of the Oligo 6.0 program (National Biosciences, Plymouth, Minn.) and have been previously described (Bieche I. et al., Pharmacogenetics and genomics. 2007; 17:731-742).
# [4] = test system: peripheral blood CD34+ cells; assay: Two-step MK differentiation culture: level of proliferation (viable cell count)
# Protocol: as §1
# CD34+CD41dim cells [5] = assay: Quantification of proplatelet-bearing MKs from sorted CD34+CD41dim cells
# Protocol: The cells recovered on day 10 were incubated with a mixture of Alexa-488-conjugated anti-CD41 (ALMA.17) and PE-Cy7-conjugated anti-CD34 mAbs (BD Biosciences) for 30 min at 4° C. They were then washed in PBS-EDTA and incubated for 30 min in PBS containing 7-AAD (1/50) to select viable cells. The morphologic and sorting gates were determined by FMO (fluorescence minus one) analysis and megakaryocytic precursors were sorted at 500 cells/s according to their CD34/CD41 expression using a FACS Aria II flow cytometer (Becton Dickinson, Mountain View, Calif.) equipped with a 50 μm nozzle and two argon lasers operating at 500 mW and tuned to 488 and 360 nm, respectively (Coherent Radiation, Palo Alto, Calif.). The sorted CD34^+CD41^dim and CD34 CD41^+ cells were then counted and seeded at 4×10^4/mL in 48-well plates in StemSpan medium containing TPO with or without SR1 for 7 days (FIG. 4A).
# as §2
# [6] = test system: peripheral blood CD34+ cells; assay: Determination of the number of platelets produced per seeded cell, two-step culture of CD34+ cells
# Protocol: as §1
# In a second protocol, CD34^+ cells were cultured in the presence of mesenchymal stromal cells (MSCs) isolated from human bone marrow (Guilloton F et al., Blood. 2012; 119:2556-2567). MSCs were maintained in α-MEM medium supplemented with 10% fetal bovine serum (Invitrogen, Cergy Pontoise, France) and 2 ng/mL recombinant human (rh) FGF2 (Peprotech, Rocky Hill, N.J.). CD34^+ cells were added to a confluent layer of MSCs at a density of 4×10^4/mL in 48-well plates in StemSpan SFEM medium supplemented with 20 ng/mL human LDL and CC220. […]
# CD34^+ cells cultured for 7 days in the presence of CC220 (FIGS. 1A and 5A) or CD34/CD41 sorted cells (FIGS. 4A and 6A) were seeded in a medium containing TPO. […] CD41/CD42c double positive events, having the same scattering properties as washed blood platelets, were counted as platelet-like particles and the number of particles per seeded cell, at day 7 or 10 following experiments, was determined.
# [7] = SR1-derived CD34+CD41dim cells sorted day 10, 7 days in TPO + SR1 (5 μM)
structure (smiles),measurement,setting,value
"CC(C)n1cnc2c(NCCc3ccc(O)cc3)nc(-c3csc4ccccc34)nc21 [SR1, 4-(2-(2-(benzo[b]thiophen-3-yl)-9-isopropyl-9H-purin-6-ylamino)ethyl)phenol]",percentage of MKs extending proplatelets,"[1]; day 14, 1 μM SR1, CC220 day 0-7 then TPO day 7-14",34.6±2.1%
same,number of platelet-like elements per seeded cell,CD34+CD41dim cells [2]; [7],52.1±8.8 platelets/seeded cell and 52.06±8.79 platelets/seeded cell
same,enhanced production of platelet-like elements with SR1 as compared to without SR1,"CD34+CD41dim cells [2]; sorted CD34+CD41dim cells, 7 days in TPO",6.8 fold
same,decrease in CD34 positivity,"[3]; day 7, expansion step with CC220, SR1-treated",8.3%
same,"CD34+CD41+ cells, % of total population","[3]; day 7, presence of SR1",68.9±1.8% and 69%
same,"CD34+CD41- cells, % of total population","[3]; day 7, presence of SR1",22.4±1.5%
same,"CD34-CD41+ cells, % of total population","[3]; day 7, presence of SR1",3.6±0.3%
same,"CD34+CD41+ cells, % of the cells","[3]; day 10, SR1-treated cultures",55.1±4.9% and 55%
same,"CD34+CD41dim cells (region R2), % of total cells","[3]; day 10, SR1 treatment, mean±SEM in 8 experiments",36.8±1.9%
same,proportion of CD34+ cells,"[3]; day 10, after passage in TPO alone, SR1 treatment",71.6%
same,"CD34-CD41+ cells, % of the cells","[3]; day 10, presence of SR1",26.7±4.5%
same,CYP1B1 expression,"CYP1B1; day 7 culture, SR1 treated cells, control 579.8±40.8, n=3",2.5±0.8 arbitrary units
same,fold expansion of the total nucleated cells,"[4]; day 7, over input of CD34+ cells on day 0, with SR1, mean±SEM, n=8",4.2±1.2 fold
same,increase in number of cells from day 7 to day 10,"[4]; day 7 to day 10, SR1-treated cultures",2.5 times
same,percentage of MKs extending proplatelets,"CD34+CD41dim cells [5]; MSC-derived CD34+CD41dim cells sorted day 10, 7 days in TPO + 5 μM SR1, n=4",49.5±10.5%
same,percentage of MKs extending proplatelets,CD34+CD41dim cells [5]; [7],91.0±2.4%
same,proportion of the MKs produced that are proplatelet-bearing MKs,"CD34+CD41dim cells [5]; from seeded CD34+CD41dim cells, summary statement",About 90%
same,number of platelet-like elements per cell seeded on day 7,"[6]; day 14, 1 μM SR1",20.72±5.19 platelets/seeded cell
same,increase in number of platelet particles after addition of SR1 versus control,"[6]; day 14, per cell seeded on day 7",about 3 fold
O=Cc1c2[nH]c3ccccc3c2cc2[nH]c3ccccc3c12 [FICZ],proplatelet extension of MKs,[1]; SR1 replaced by FICZ (0.2 μM),dramatic decrease
same,proportion of CD34+CD41dim cells,"[3]; MSC co-culture with addition of FICZ, data not shown",reduced
same,effect on the MSC-induced decrease in CYP1B1 transcripts,"CYP1B1; MSC co-culture with addition of FICZ, day 10",reversed
same,number of platelet-like elements per cell seeded on day 7,"[6]; day 14, SR1 replaced by 0.2 μM FICZ",0.20±0.04 platelets/seeded cell
